# Reference: PubChem BioAssay (NCI)
#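 48-hour exposure; five concentrations; linearly interpolated endpoints. Abbreviation: GI50, concentration required for 50% inhibition of growth. TGI denotes the concentration required for complete inhibition of growth.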
# Legend:
# Assay in all cases: growth of human tumour cells (NCI), 48 h
# [1] = tested on: PC-3 prostate
# [2] = tested on: LOX IMVI melanoma
# [3] = tested on: MDA-MB-468 breast
# [4] = tested on: SF-295 CNS
# [5] = tested on: SN12C renal
# [6] = tested on: SF-539 CNS
# [7] = tested on: HOP-62 NSCLC
# [8] = tested on: SK-MEL-28 melanoma
# [9] = tested on: UACC-62 melanoma
# [10] = tested on: UO-31 renal
# [11] = tested on: SNB-75 CNS
# [12] = tested on: MOLT-4 leukemia
# [13] = tested on: IGROV1 ovarian
# [14] = tested on: HOP-92 NSCLC
# [15] = tested on: NCI-H23 lung
# [16] = tested on: HS 578T breast
# [17] = tested on: EKVX NSCLC
# [18] = tested on: A498 renal
# [19] = tested on: NCI/ADR-RES ovarian
# [20] = tested on: COLO 205 colon
# [21] = tested on: OVCAR-4 ovarian
# [22] = tested on: RPMI-8226 leukemia
# [23] = tested on: K-562 leukemia
# [24] = tested on: MCF7 breast
# [25] = tested on: SK-OV-3 ovarian
# [26] = tested on: A549 NSCLC
# [27] = tested on: MDA-MB-231 breast
# [28] = tested on: NCI-H460 lung
# [29] = tested on: TK-10 renal
# [30] = tested on: DU-145 prostate
# [31] = tested on: M14 melanoma
# [32] = tested on: HCC-2998 colon
# [33] = tested on: SK-MEL-5 melanoma
# [34] = tested on: SW-620 colon
# [35] = tested on: HCT-116 colon
# [36] = tested on: 786-0 renal
# [37] = tested on: CCRF-CEM leukemia
# [38] = tested on: HT29 colon
# [39] = tested on: SR leukemia
# [40] = tested on: OVCAR-3 ovarian
# [41] = tested on: BT-549 breast
# [42] = tested on: OVCAR-5 ovarian
# [43] = tested on: NCI-H522 lung
# [44] = tested on: HCT-15 colon
# [45] = tested on: MDA-MB-435
# [46] = tested on: U251 CNS
# [47] = tested on: CAKI-1 renal
# [48] = tested on: NCI-H226 lung
# [49] = tested on: KM12 colon
# [50] = tested on: OVCAR-8 ovarian
# [51] = tested on: MALME-3M melanoma
# [52] = tested on: SK-MEL-2 melanoma
# [53] = tested on: T-47D breast
# [54] = tested on: RXF 393 renal
# [55] = tested on: SNB-19 CNS
# [56] = tested on: UACC-257 melanoma
# [57] = tested on: SF-268 CNS
# [58] = tested on: ACHN renal
# [59] = tested on: HL-60(TB) leukemia
smiles,measurement,setting,value
Fc1cccc(CNc2nc(SCCN3CCOCC3)nc3c2cnn3CC(Cl)c2ccc(Br)cc2)c1 (stereo not drawn),GI50,[1],6.58 µM
same,TGI,[1],> 100 µM
same,GI50,[2],2.9 µM
same,TGI,[2],11.6 µM
same,GI50,[3],2.62 µM
same,TGI,[3],8.48 µM
same,GI50,[4],4.16 µM
same,TGI,[4],> 100 µM
same,GI50,[5],12 µM
same,TGI,[5],> 100 µM
same,GI50,[6],4.58 µM
same,TGI,[6],> 100 µM
same,GI50,[7],25.8 µM
same,TGI,[7],> 100 µM
same,GI50,[8],8.51 µM
same,TGI,[8],> 100 µM
same,GI50,[9],8.76 µM
same,TGI,[9],23.8 µM
same,GI50,[10],5.11 µM
same,TGI,[10],> 100 µM
same,GI50,[11],6.5 µM
same,TGI,[11],> 100 µM
same,GI50,[12],2.58 µM
same,TGI,[12],15.7 µM
same,GI50,[13],34.4 µM
same,TGI,[13],> 100 µM
same,GI50,[14],13.4 µM
same,TGI,[14],> 100 µM
same,GI50,[15],17 µM
same,TGI,[15],> 100 µM
same,GI50,[16],8.83 µM
same,TGI,[16],> 100 µM
same,GI50,[17],8.05 µM
same,TGI,[17],> 100 µM
same,GI50,[18],30.4 µM
same,TGI,[18],> 100 µM
same,GI50,[19],4.52 µM
same,TGI,[19],> 100 µM
same,GI50,[20],4.31 µM
same,TGI,[20],20.5 µM
same,GI50,[21],8.81 µM
same,TGI,[21],> 100 µM
same,GI50,[22],4.33 µM
same,TGI,[22],> 100 µM
same,GI50,[23],2.69 µM
same,TGI,[23],> 100 µM
same,GI50,[24],4.61 µM
same,TGI,[24],> 100 µM
same,GI50,[25],> 100 µM
same,TGI,[25],> 100 µM
same,GI50,[26],4.88 µM
same,TGI,[26],> 100 µM
same,GI50,[27],4.25 µM
same,TGI,[27],52.6 µM
same,GI50,[28],5.04 µM
same,TGI,[28],> 100 µM
same,GI50,[29],43.8 µM
same,TGI,[29],> 100 µM
same,GI50,[30],39 µM
same,TGI,[30],> 100 µM
same,GI50,[31],7.96 µM
same,TGI,[31],> 100 µM
same,GI50,[32],3.46 µM
same,TGI,[32],> 100 µM
same,GI50,[33],7.54 µM
same,TGI,[33],20.3 µM
same,GI50,[34],2.89 µM
same,TGI,[34],10.4 µM
same,GI50,[35],4.82 µM
same,TGI,[35],> 100 µM
same,GI50,[36],5.7 µM
same,TGI,[36],> 100 µM
same,GI50,[37],5.41 µM
same,TGI,[37],> 100 µM
same,GI50,[38],1.86 µM
same,TGI,[38],3.82 µM
same,GI50,[39],2.5 µM
same,TGI,[39],> 100 µM
same,GI50,[40],53.1 µM
same,TGI,[40],> 100 µM
same,GI50,[41],21.2 µM
same,TGI,[41],57.4 µM
same,GI50,[42],14.1 µM
same,TGI,[42],> 100 µM
same,GI50,[43],8.22 µM
same,TGI,[43],> 100 µM
same,GI50,[44],1.94 µM
same,TGI,[44],4.5 µM
same,GI50,[45],11.5 µM
same,TGI,[45],> 100 µM
same,GI50,[46],6.12 µM
same,TGI,[46],> 100 µM
same,GI50,[47],5.07 µM
same,TGI,[47],> 100 µM
same,GI50,[48],13.2 µM
same,TGI,[48],98.4 µM
same,GI50,[49],4.81 µM
same,TGI,[49],> 100 µM
same,GI50,[50],10.7 µM
same,TGI,[50],> 100 µM
same,GI50,[51],3.02 µM
same,TGI,[51],24.9 µM
same,GI50,[52],11.9 µM
same,TGI,[52],37.5 µM
same,GI50,[53],3.28 µM
same,TGI,[53],> 100 µM
same,GI50,[54],2.44 µM
same,TGI,[54],21.3 µM
same,GI50,[55],16.2 µM
same,TGI,[55],> 100 µM
same,GI50,[56],13.9 µM
same,TGI,[56],> 100 µM
same,GI50,[57],10 µM
same,TGI,[57],> 100 µM
same,GI50,[58],5.83 µM
same,TGI,[58],> 100 µM
same,GI50,[59],3.85 µM
same,TGI,[59],50.4 µM
